pIC50: −log10 of the molar value.
Molecular target: T1, human ACCβ (Homo sapiens, UniProt O00763)
T1 construct: The cloning of the full length human muscle-type ACCβ cDNA and expression in HEK293 cells; made in house; host or cells: HEK293 cells (ATCC CRL-1573), transfected with plasmid pRF33D
Test: Radiometric ACCβ enzyme inhibition assay ([14C]NaHCO3 incorporation into malonyl-CoA)
Type: biochemical
Details: human muscle-type ACCβ expressed in HEK293 cells; saturating substrate concentrations; 37° C., 45 min
Procedure: Production and Characterization of Human ACCβ Enzyme, Its Use in ACC Activity Assays and for Inhibition Studies
The cloning of the full length human muscle-type ACCβ cDNA and expression in HEK293 cells (ATCC, # CRL-1573) was performed as follows. The ACCβ cDNA was amplified by the polymerase chain reaction (PCR) and was cloned using standard recombinant DNA techniques. The PCR reaction was performed with the Expand Long Template PCR System (Roche Molecular Biochemicals, # 1 681 8340) and 0.5 ng of cDNA from human skeletal muscle as template. The primers used for PCR amplification were designed on the basis of the published sequence of the human ACCβ cDNA isolated from a human liver cDNA library (Abul-Elheiga et al. J. Biol. Chem. 272, 10669-10677, 1997). The sequence of the forward primer ACCB1 was 5′-[…]-3′; it includes a NheI restriction cleavage site for subcloning and a Kozak translation initiation consensus sequence preceding the ATG start codon. The sequence of the reverse primer ACCB8 was 5′-[…]-3′; it includes a stop codon and a XhoI restriction cleavage site for subcloning. The amplified DNA fragment of approximately 7.4 kb was cloned into a mammalian expression vector. The resulting plasmid isolates, pRF33A, B, C, D, and E were individually transfected in human embryonic kidney 293 cells (HEK293) using a standard lipid transfection method. Cell extracts of transfected cells were prepared in a lysis buffer containing 0.4 mg/ml digitonin and enzyme activity was determined using a radiometric ACC activity assay as described below. Plasmid pRF33D gave the highest activity and was chosen for large scale transfections of HEK293 cells and enzyme purification.
Since ACC enzyme activities in crude cell lysates were very low, enrichment of ACCβ enzyme expressed in HEK293 cells was achieved by a single anion exchange chromatography step. Cell lysates were run over a 5 ml Econo Pac High Q column (Bio-Rad, # 732-0027). Bound proteins were eluted by a gradient of NaCl from 0 to 1 M in 50 mM Tris-HCl, pH 7.5, 1 mM DTT, 5% glycerol. Fractions containing high ACCβ enzyme activity were pooled and stored at −20° C.
Standard ACCβ enzyme assays, in a total volume of 100 μl, contained 50 mM HEPES-KOH, pH 7.5, 10 mM K-citrate, 10 mM MgSO4, 1 mM ATP, 0.1 mM DTT, 2% DMSO, 0.1 mg/ml fatty acid-free BSA, 0.2 mM acetyl-CoA, 2 mM KHCO3, 0.2 mM [^14C]NaHCO3 (50-60 mCi/mmol) and cell lysate or purified ACCβ enzyme. Reactions were incubated at 37° C. for 45 min. and stopped by the addition of 50 μl of 2 N HCl. Terminated reactions were incubated at 50° C. over night to evaporate non-incorporated [^14C]NaHCO3. [^14C]-labeled malonyl-CoA reaction product was quantitated by liquid scintillation counting after the addition of 20 μl of Microscint 20 (Canberra Packard, # 6013621) on a TopCount NXT microplate scintillation counter (Canberra Packard).
Inhibition of ACCβ activity was determined at saturating substrate concentrations with two-fold serial dilutions of test compounds spanning a concentration range of at least two log units. IC50 values were calculated with the GraFit software (Erithacus Software Ltd.).

T1 sequence (O00763 whole entry): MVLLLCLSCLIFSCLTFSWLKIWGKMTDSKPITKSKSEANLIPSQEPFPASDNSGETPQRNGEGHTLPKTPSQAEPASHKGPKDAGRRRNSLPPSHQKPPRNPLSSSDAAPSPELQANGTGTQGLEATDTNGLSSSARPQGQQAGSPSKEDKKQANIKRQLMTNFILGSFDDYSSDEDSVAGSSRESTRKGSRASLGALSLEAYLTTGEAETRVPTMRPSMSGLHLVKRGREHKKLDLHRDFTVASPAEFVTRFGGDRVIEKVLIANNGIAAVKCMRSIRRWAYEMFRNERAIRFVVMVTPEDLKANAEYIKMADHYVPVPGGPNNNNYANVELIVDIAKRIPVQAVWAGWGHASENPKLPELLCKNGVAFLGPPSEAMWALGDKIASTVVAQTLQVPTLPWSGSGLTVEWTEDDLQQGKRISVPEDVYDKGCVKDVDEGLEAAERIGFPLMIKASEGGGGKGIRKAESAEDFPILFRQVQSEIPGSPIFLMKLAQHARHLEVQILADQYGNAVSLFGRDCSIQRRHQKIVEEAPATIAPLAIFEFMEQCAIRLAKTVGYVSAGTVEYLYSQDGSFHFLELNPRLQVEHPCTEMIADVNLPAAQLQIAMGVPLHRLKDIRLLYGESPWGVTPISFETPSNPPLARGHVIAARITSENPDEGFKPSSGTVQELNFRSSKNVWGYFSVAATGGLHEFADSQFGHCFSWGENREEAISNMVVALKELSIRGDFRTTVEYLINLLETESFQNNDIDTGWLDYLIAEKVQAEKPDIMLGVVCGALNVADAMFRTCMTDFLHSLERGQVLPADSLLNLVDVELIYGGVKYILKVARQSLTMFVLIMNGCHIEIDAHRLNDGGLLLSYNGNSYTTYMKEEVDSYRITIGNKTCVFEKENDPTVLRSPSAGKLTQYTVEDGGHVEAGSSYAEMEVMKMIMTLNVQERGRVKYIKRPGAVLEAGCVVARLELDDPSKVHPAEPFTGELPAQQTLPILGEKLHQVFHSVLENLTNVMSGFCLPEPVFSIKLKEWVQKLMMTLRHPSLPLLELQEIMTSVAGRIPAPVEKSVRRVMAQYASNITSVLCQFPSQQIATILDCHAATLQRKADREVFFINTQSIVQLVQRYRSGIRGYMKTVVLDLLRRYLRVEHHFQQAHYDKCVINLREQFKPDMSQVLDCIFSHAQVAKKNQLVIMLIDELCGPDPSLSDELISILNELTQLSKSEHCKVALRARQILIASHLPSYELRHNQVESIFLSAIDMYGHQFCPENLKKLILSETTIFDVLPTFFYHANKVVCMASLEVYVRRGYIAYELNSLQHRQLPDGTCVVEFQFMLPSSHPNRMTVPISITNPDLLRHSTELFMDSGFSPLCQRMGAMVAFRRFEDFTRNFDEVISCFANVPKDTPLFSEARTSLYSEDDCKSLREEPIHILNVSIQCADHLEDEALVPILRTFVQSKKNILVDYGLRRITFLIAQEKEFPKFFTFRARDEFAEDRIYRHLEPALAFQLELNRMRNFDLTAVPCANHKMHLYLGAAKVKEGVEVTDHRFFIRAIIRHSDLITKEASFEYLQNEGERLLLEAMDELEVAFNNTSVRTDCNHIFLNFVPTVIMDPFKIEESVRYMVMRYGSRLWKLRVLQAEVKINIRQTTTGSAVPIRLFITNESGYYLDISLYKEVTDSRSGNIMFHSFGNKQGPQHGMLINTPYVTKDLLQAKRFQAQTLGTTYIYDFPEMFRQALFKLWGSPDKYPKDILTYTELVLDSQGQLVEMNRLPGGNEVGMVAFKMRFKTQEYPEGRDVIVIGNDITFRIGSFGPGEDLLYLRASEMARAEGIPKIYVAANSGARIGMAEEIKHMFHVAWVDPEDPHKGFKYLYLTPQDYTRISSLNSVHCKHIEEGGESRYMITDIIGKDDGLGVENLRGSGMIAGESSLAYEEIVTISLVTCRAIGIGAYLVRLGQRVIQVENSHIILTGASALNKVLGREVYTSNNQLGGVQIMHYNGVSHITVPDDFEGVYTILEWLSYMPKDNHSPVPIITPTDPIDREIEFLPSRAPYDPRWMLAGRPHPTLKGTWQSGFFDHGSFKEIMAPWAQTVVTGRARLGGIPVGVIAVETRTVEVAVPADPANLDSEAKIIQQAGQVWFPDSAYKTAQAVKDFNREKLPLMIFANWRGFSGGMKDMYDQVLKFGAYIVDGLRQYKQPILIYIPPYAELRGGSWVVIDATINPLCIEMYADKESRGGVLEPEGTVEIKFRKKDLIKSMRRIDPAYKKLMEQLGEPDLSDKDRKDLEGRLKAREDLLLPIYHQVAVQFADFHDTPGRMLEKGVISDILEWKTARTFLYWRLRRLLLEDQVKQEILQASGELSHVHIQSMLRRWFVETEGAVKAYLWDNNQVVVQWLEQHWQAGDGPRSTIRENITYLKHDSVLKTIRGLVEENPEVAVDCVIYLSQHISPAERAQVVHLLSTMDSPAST

Structure (SMILES)	pIC50
Cn1nnc(-c2ccc(C#Cc3ccc4c(c3)OCC(C)(C)CO4)cc2)n1 [Example 14, 5-[4-(3,3-Dimethyl-3,4-dihydro-2H-benzo[b][1,4]dioxepin-7-ylethynyl)-phenyl]-2-methyl-2H-tetrazole]	4.95
CC1(C)COc2ccc(C#Cc3ccc4c(c3)CCO4)cc2OC1 [Example 9, 7-(2,3-Dihydro-benzofuran-5-ylethynyl)-3,3-dimethyl-3,4-dihydro-2H-benzo[b][1,4]dioxepine]	4.82
COc1cccc(C#Cc2ccc3c(c2)OCC(C)(C)CO3)c1 [Example 5, 7-(3-Methoxy-phenylethynyl)-3,3-dimethyl-3,4-dihydro-2H-benzo[b][1,4]dioxepine]	4.37

These reach a higher pIC50. Values come first.

pIC50	Structure (SMILES)
5.27	CCOC(=O)c1ccc(C#Cc2ccc3c(c2)OCC(C)(C)CO3)cn1 [Example 13, 5-(3,3-Dimethyl-3,4-dihydro-2H-benzo[b][1,4]dioxepin-7-ylethynyl)-pyridine-2-carboxylic acid ethyl ester]
5.51	CCOC(=O)c1cccc(C#Cc2ccc3c(c2)OCC(C)(C)CO3)c1 [Example 15, 3-(3,3-Dimethyl-3,4-dihydro-2H-benzo[b][1,4]dioxepin-7-ylethynyl)-benzoic acid ethyl ester]
5.84	CCOc1ccc(C#Cc2ccc3c(c2)OCC(C)(C)CO3)cc1 [Example 7, 7-(4-Ethoxy-phenylethynyl)-3,3-dimethyl-3,4-dihydro-2H-benzo[b][1,4]dioxepine]
6.60	CCOC(=O)c1ccc(OCc2ccc3c(c2)OCC(C)(C)CO3)cc1 [Example 23, 4-(3,3-Dimethyl-3,4-dihydro-2H-benzo[b][1,4]dioxepin-7-ylmethoxy)-benzoic acid ethyl ester]
8.00	CCCOc1ccc(C#Cc2ccc3c(c2)OCC(C)(C)CO3)cc1 [Example 21, 3,3-Dimethyl-7-(4-propoxy-phenylethynyl)-3,4-dihydro-2H-benzo[b][1,4]dioxepine]
